Consider 52 compounds from PubChem BioAssay AID1996.

In brackets after ≈: the same amount, converted by molar mass.

For the data set the following is noted: buffer; pH 7.4; 200.0 µM.
The term kinetic solubility denotes the concentration staying in solution when a stock, usually in DMSO, is diluted into the medium. `O=C(NCCOc1ccccc1)C1CCCCC1` returned a solubility (kinetic) greater than 37.1 µg/mL.
Next, `CCOc1ccccc1NC(=O)c1ccccc1NC(=O)c1ccco1`: less than 0.4 µg/mL.
Regarding `CC(C(=O)Nc1ccc(OCc2ccccc2)cc1)N1CCCC1` (configuration not stated), the kinetic solubility is greater than 48.7 µg/mL.
Next, `CCOC(=O)c1cc(C#N)c(=S)[nH]c1C`: 33.1 µg/mL (≈ 149 µM).
Take `CC(=O)c1ccc(NC(=S)NCCCn2ccnc2)cc1`: the solubility (kinetic) was greater than 45.4 µg/mL.
Next, `CC(=O)c1cc(CN2CCN(C(C)C)C(CCO)C2)cs1` (configuration not stated): 35.7 µg/mL (≈ 115 µM).
Next, `CCn1c(Cc2cccs2)nnc1SCC(=O)NC1CC1`: greater than 48.4 µg/mL.
`CCCn1c(=O)c(-c2nc3ccccc3[nH]2)c(O)c2ccccc21` returned a solubility (kinetic) of 0.4 µg/mL (≈ 1.25 µM).
The result for `O=C1NC(=O)C(C(CC(=O)c2ccccc2)c2ccccc2)C(=O)N1` (configuration not stated) reads greater than 50.5 µg/mL; that for `Cn1c(N)c(Sc2ccccc2[N+](=O)[O-])c(=O)n(C)c1=O`, 41.5 µg/mL (≈ 135 µM).
Next, `O=C(NCC1CCCO1)c1ccc(N2C(=O)C3CCCCC3C2=O)cc1` (configuration not stated): 44.9 µg/mL (≈ 126 µM); `CC(=O)c1cccc(NC(=S)Nc2cccc3ccccc23)c1`: 10.6 µg/mL (≈ 33.1 µM).
The result for `COCCC(=O)Nc1ccc2c(c1)CN(C(=O)CCOC)CC2` reads greater than 48.1 µg/mL; that for `COc1ccc(C(=O)NC2=NCCS2)cc1`, greater than 35.4 µg/mL.
Compound `Cc1ccc(NC(=O)c2cc(C)no2)cc1` registered a kinetic solubility of 26.2 µg/mL (≈ 121 µM).
The result for `Cc1onc(-c2c(Cl)cccc2Cl)c1NC(=O)N1CCSCC1` reads greater than 55.8 µg/mL; that for `CC(CCc1ccccc1)NC(=O)CCNC(=O)c1ccccc1Cl` (configuration not stated), 12.3 µg/mL (≈ 34.3 µM).
Compound `O=C(Cc1ccccc1[N+](=O)[O-])OCN1C(=O)c2ccccc2C1=O` came in with a kinetic solubility of 13.7 µg/mL (≈ 40.3 µM).
On to `O=C(Nc1ccc(Cn2ccnc2)cc1)c1cccc(C(F)(F)F)c1`, for which the kinetic solubility stood at 1.6 µg/mL (≈ 4.63 µM).
`CN=C1S/C(=C\c2ccc(O)c(Br)c2)C(=O)N1C` gave a kinetic solubility of 16.7 µg/mL (≈ 51 µM).
The result for `Cc1nc(NC(=O)CN2CCCCC2)sc1C(=O)N(C)C` reads greater than 46.6 µg/mL; that for `O=C(CNCc1ccc(F)cc1)Nc1cc(S(=O)(=O)N2CCOCC2)ccc1Cl`, 8.4 µg/mL (≈ 19 µM).
Next, `O=C(c1ccc([N+](=O)[O-])cc1)N1CCN(C(=O)C2CCCCC2)CC1`: greater than 51.8 µg/mL; `CCCCCCOc1ccc(C(=O)NCCCn2ccnc2)cc1`: greater than 49.4 µg/mL; `O=C(NCc1ccc(F)cc1)c1cccnc1C(=O)O`: greater than 41.1 µg/mL.
`CCc1ccc(C(=O)Nc2cc(C)on2)o1` registered a kinetic solubility greater than 33 µg/mL.
The result for `Cc1oc(C(C)(C)C)cc1C(N)=O` reads greater than 27.2 µg/mL.
The result for `O=C(O)CNC(=O)c1ccc(N2CCOCC2)cc1[N+](=O)[O-]` reads greater than 46.4 µg/mL; that for `COC(=O)[C@H](CCSC)NC(=O)Nc1cccc(C)c1C`, 37.1 µg/mL (≈ 120 µM); that for `Cc1ccc(/C=C2\SC(=S)N(C3CCS(=O)(=O)C3)C2=O)cc1` (configuration not stated), less than 0.8 µg/mL.
The result for `CC(=O)N1CCN(CC(=O)Nc2ccc(C)c(F)c2)CC1.Cl` reads 46.8 µg/mL; that for `COCCn1c(SCC(=O)NNC(=O)c2ccccc2)nc2ccccc21`, greater than 57.7 µg/mL; that for `S=C(NCCCc1ccccc1)NCc1ccccc1`, 23.4 µg/mL (≈ 82.3 µM).
In turn, `Cc1nnc(SCC(=O)c2c(N)n(C3CC3)c(=O)[nH]c2=O)n1C` yielded a kinetic solubility greater than 50.5 µg/mL.
Next, `COc1ccc2[nH]c(C(=O)NCc3ccccc3)cc2c1`: 1.3 µg/mL (≈ 4.64 µM); `CC(C)[C@H](NC(N)=O)C(=O)Nc1ccc(OCc2ccccc2)cc1`: 3 µg/mL (≈ 8.79 µM).
The result for `Cc1[nH]c2nc3ccccc3n2c(=O)c1CCC(C)C` reads less than 0.2 µg/mL; that for `O=c1ccnc2n1COCS2`, greater than 25.5 µg/mL.
The result for `C=CCOc1ccc(C2NC(=O)c3ccccc3O2)cc1OCC` (configuration not stated) reads 2.6 µg/mL (≈ 7.99 µM).
`CN1CCc2cccc3c2[C@@H]1Cc1ccc(O)c(O)c1-3.Cl`: the solubility (kinetic) worked out at 12.5 µg/mL.
Next, `Cc1cc(Br)cc(C=Nc2ccc(N3CCOCC3)cc2)c1O`: 6.1 µg/mL (≈ 16.3 µM); `CC(=O)C1=C(c2ccccc2)NC(=O)NC1c1ccccc1` (configuration not stated): greater than 43.9 µg/mL.
The result for `Cc1ccc(C(=O)NC(=S)N2CCN(C)CC2)cc1Br` reads 47.4 µg/mL (≈ 133 µM); that for `O=[N+]([O-])c1cccc(NC(=S)N2CCCC2)c1`, greater than 37.7 µg/mL.
The compound `Cl.O=C(COc1ccc(Br)cc1)OCCN1CCCCC1` yielded a kinetic solubility greater than 56.8 µg/mL.
Next, `CCOC(=O)c1sc(NC(=O)CN2CCN(c3ccc(OC)cc3)CC2)nc1C`: 15.3 µg/mL (≈ 36.6 µM); `OCCC1CN(CC2CC2)CCN1Cc1ccc(F)c(F)c1` (configuration not stated): greater than 46.6 µg/mL; `O=C(Cn1ccc([N+](=O)[O-])n1)NCC1CCCO1` (configuration not stated): greater than 38.1 µg/mL.
The result for `Nc1c(C(=O)O)sc2nc(-c3ccccc3)cc(-c3ccc(F)cc3)c12` reads 51.3 µg/mL (≈ 141 µM); that for `COc1cccc(-c2onc3ccc(C(=O)/C=C/N(C)C)cc23)c1`, 14.6 µg/mL (≈ 45.3 µM); that for `N#Cc1cccc(NC(=O)COC(=O)C2CCC2)c1`, greater than 38.7 µg/mL.
The result for `O=C(CNC(=O)c1ccco1)OCc1ccc(Br)cc1` reads 40.5 µg/mL (≈ 120 µM).
